Test results from ChEMBL document CHEMBL4257522, “Synthesis and preliminary anti-inflammatory and anti-bacterial evaluation of some diflunisal aza-analogs” (Medchemcomm, 2018).

Assays:
Escherichia coli [1] = assay: Potentiation of methicillin-induced antibacterial activity against Escherichia coli ATCC 43894 assessed as minimum modulatory concentration up to 32 uM measured after 16 hrs in presence of MIC/4 methicillin; assay type: functional; conditions: ATCC 43894, 16 h, read-out: MEC
Staphylococcus aureus [2] = assay: Potentiation of geneticin-induced antibacterial activity against Staphylococcus aureus ATCC 33592 assessed as minimum modulatory concentration up to 32 uM measured after 16 hrs in presence of MIC/4 geneticin; assay type: functional; conditions: ATCC 33592, 16 h, read-out: MEC
Klebsiella pneumoniae [3] = assay: Potentiation of ciprofloxacin-induced antibacterial activity against Klebsiella pneumoniae ATCC 13883 assessed as minimum modulatory concentration up to 32 uM measured after 16 hrs in presence of MIC/4 ciprofloxacin; assay type: functional; conditions: ATCC 13883, 16 h, read-out: MEC
Klebsiella pneumoniae [4] = assay: Potentiation of geneticin-induced antibacterial activity against Klebsiella pneumoniae ATCC 13883 assessed as minimum modulatory concentration up to 32 uM measured after 16 hrs in presence of MIC/4 geneticin; assay type: functional; conditions: ATCC 13883, 16 h, read-out: MEC
Enterococcus faecium [5] = assay: Toxicity in Enterococcus faecium ATCC 700221 up to 32 uM measured after 16 hrs; assay type: organism-based; conditions: in vitro
Staphylococcus aureus [6] = assay: Potentiation of tetracycline-induced antibacterial activity against Staphylococcus aureus ATCC 33592 assessed as minimum modulatory concentration up to 32 uM measured after 16 hrs in presence of MIC/4 tetracycline; assay type: functional; conditions: ATCC 33592, 16 h, read-out: MEC
Escherichia coli [7] = assay: Toxicity in Escherichia coli ATCC 43894 up to 32 uM measured after 16 hrs; assay type: organism-based
Enterococcus faecium [8] = assay: Potentiation of tetracycline-induced antibacterial activity against Enterococcus faecium ATCC 700221 assessed as minimum modulatory concentration up to 32 uM measured after 16 hrs in presence of MIC/4 tetracycline; assay type: functional; conditions: ATCC 700221, 16 h, read-out: MEC
Pseudomonas aeruginosa [9] = assay: Potentiation of tetracycline-induced antibacterial activity against Pseudomonas aeruginosa ATCC BAA-2108 assessed as minimum modulatory concentration up to 32 uM measured after 16 hrs in presence of MIC/4 tetracycline; assay type: functional; conditions: ATCC BAA-2108, 16 h, read-out: MEC
Escherichia coli [10] = assay: Potentiation of tetracycline-induced antibacterial activity against Escherichia coli ATCC 43894 assessed as minimum modulatory concentration up to 32 uM measured after 16 hrs in presence of MIC/4 tetracycline; assay type: functional; conditions: ATCC 43894, 16 h, read-out: MEC
Klebsiella pneumoniae [11] = assay: Potentiation of erythromycin-induced antibacterial activity against Klebsiella pneumoniae ATCC 13883 assessed as minimum modulatory concentration up to 32 uM measured after 16 hrs in presence of MIC/4 erythromycin; assay type: functional; conditions: ATCC 13883, 16 h, read-out: MEC
Streptococcus pyogenes [12] = assay: Potentiation of ciprofloxacin-induced antibacterial activity against Streptococcus pyogenes ATCC 14289 assessed as minimum modulatory concentration up to 32 uM measured after 16 hrs in presence of MIC/4 ciprofloxacin; assay type: functional; conditions: ATCC 14289, 16 h, read-out: MEC
Klebsiella pneumoniae [13] = assay: Toxicity in Klebsiella pneumoniae ATCC 13883 up to 32 uM measured after 16 hrs; assay type: organism-based
Klebsiella pneumoniae [14] = assay: Potentiation of methicillin-induced antibacterial activity against Klebsiella pneumoniae ATCC 13883 assessed as minimum modulatory concentration up to 32 uM measured after 16 hrs in presence of MIC/4 methicillin; assay type: functional; conditions: ATCC 13883, 16 h, read-out: MEC
Staphylococcus aureus [15] = assay: Potentiation of ciprofloxacin-induced antibacterial activity against Staphylococcus aureus ATCC 33592 assessed as minimum modulatory concentration up to 32 uM measured after 16 hrs in presence of MIC/4 ciprofloxacin; assay type: functional; conditions: ATCC 33592, 16 h, read-out: MEC
Streptococcus pyogenes [16] = assay: Potentiation of erythromycin-induced antibacterial activity against Streptococcus pyogenes ATCC 14289 assessed as minimum modulatory concentration up to 32 uM measured after 16 hrs in presence of MIC/4 erythromycin; assay type: functional; conditions: ATCC 14289, 16 h, read-out: MEC
Streptococcus pyogenes [17] = assay: Potentiation of tetracycline-induced antibacterial activity against Streptococcus pyogenes ATCC 14289 assessed as minimum modulatory concentration up to 32 uM measured after 16 hrs in presence of MIC/4 tetracycline; assay type: functional; conditions: ATCC 14289, 16 h, read-out: MEC
Pseudomonas aeruginosa [18] = assay: Potentiation of methicillin-induced antibacterial activity against Pseudomonas aeruginosa ATCC BAA-2108 assessed as minimum modulatory concentration up to 32 uM measured after 16 hrs in presence of MIC/4 methicillin; assay type: functional; conditions: ATCC BAA-2108, 16 h, read-out: MEC
Pseudomonas aeruginosa [19] = assay: Potentiation of erythromycin-induced antibacterial activity against Pseudomonas aeruginosa ATCC BAA-2108 assessed as minimum modulatory concentration up to 32 uM measured after 16 hrs in presence of MIC/4 erythromycin; assay type: functional; conditions: ATCC BAA-2108, 16 h, read-out: MEC
Macrophage cell line [20] = assay: Induction of TNFalpha production in human PBMC-differentiated macrophages after 24 hrs by ELISA; assay type: cell-based
Streptococcus pyogenes [21] = assay: Potentiation of geneticin-induced antibacterial activity against Streptococcus pyogenes ATCC 14289 assessed as minimum modulatory concentration up to 32 uM measured after 16 hrs in presence of MIC/4 geneticin; assay type: functional; conditions: ATCC 14289, 16 h, read-out: MEC
Enterococcus faecium [22] = assay: Potentiation of erythromycin-induced antibacterial activity against Enterococcus faecium ATCC 700221 assessed as minimum modulatory concentration up to 32 uM measured after 16 hrs in presence of MIC/4 erythromycin; assay type: functional; conditions: ATCC 700221, 16 h, read-out: MEC
Enterococcus faecium [23] = assay: Potentiation of geneticin-induced antibacterial activity against Enterococcus faecium ATCC 700221 assessed as minimum modulatory concentration up to 32 uM measured after 16 hrs in presence of MIC/4 geneticin; assay type: functional; conditions: ATCC 700221, 16 h, read-out: MEC
Pseudomonas aeruginosa [24] = assay: Potentiation of geneticin-induced antibacterial activity against Pseudomonas aeruginosa ATCC BAA-2108 assessed as minimum modulatory concentration up to 32 uM measured after 16 hrs in presence of MIC/4 geneticin; assay type: functional; conditions: ATCC BAA-2108, 16 h, read-out: MEC
Macrophage cell line [25] = assay: Induction of prostaglandin production in human PBMC-differentiated macrophages after 24 hrs by ELISA; assay type: cell-based
Klebsiella pneumoniae [26] = assay: Potentiation of tetracycline-induced antibacterial activity against Klebsiella pneumoniae ATCC 13883 assessed as minimum modulatory concentration up to 32 uM measured after 16 hrs in presence of MIC/4 tetracycline; assay type: functional; conditions: ATCC 13883, 16 h, read-out: MEC
Escherichia coli [27] = assay: Potentiation of erythromycin-induced antibacterial activity against Escherichia coli ATCC 43894 assessed as minimum modulatory concentration up to 32 uM measured after 16 hrs in presence of MIC/4 erythromycin; assay type: functional; conditions: ATCC 43894, 16 h, read-out: MEC
Staphylococcus aureus [28] = assay: Potentiation of erythromycin-induced antibacterial activity against Staphylococcus aureus ATCC 33592 assessed as minimum modulatory concentration up to 32 uM measured after 16 hrs in presence of MIC/4 erythromycin; assay type: functional; conditions: ATCC 33592, 16 h, read-out: MEC
Staphylococcus aureus [29] = assay: Toxicity in Staphylococcus aureus ATCC 33592 up to 32 uM measured after 16 hrs; assay type: organism-based
Streptococcus pyogenes [30] = assay: Toxicity in Streptococcus pyogenes ATCC 14289 up to 32 uM measured after 16 hrs; assay type: organism-based
Staphylococcus aureus [31] = assay: Potentiation of methicillin-induced antibacterial activity against Staphylococcus aureus ATCC 33592 assessed as minimum modulatory concentration up to 32 uM measured after 16 hrs in presence of MIC/4 methicillin; assay type: functional; conditions: ATCC 33592, 16 h, read-out: MEC

Row | Compound | minimal effective concentration (Escherichia coli [1]) [µM] | minimal effective concentration (Staphylococcus aureus [2]) [µM] | minimal effective concentration (Klebsiella pneumoniae [3]) [µM] | minimal effective concentration (Klebsiella pneumoniae [4]) [µM] | Activity (Enterococcus faecium [5]) | minimal effective concentration (Staphylococcus aureus [6]) [µM] | Activity (Escherichia coli [7]) | minimal effective concentration (Enterococcus faecium [8]) [µM] | minimal effective concentration (Pseudomonas aeruginosa [9]) [µM] | minimal effective concentration (Escherichia coli [10]) [µM] | minimal effective concentration (Klebsiella pneumoniae [11]) [µM] | minimal effective concentration (Streptococcus pyogenes [12]) [µM] | Activity (Klebsiella pneumoniae [13]) | minimal effective concentration (Klebsiella pneumoniae [14]) [µM] | minimal effective concentration (Staphylococcus aureus [15]) [µM] | minimal effective concentration (Streptococcus pyogenes [16]) [µM] | minimal effective concentration (Streptococcus pyogenes [17]) [µM] | minimal effective concentration (Pseudomonas aeruginosa [18]) [µM] | minimal effective concentration (Pseudomonas aeruginosa [19]) [µM] | Activity (Macrophage cell line [20]) | other results
1 | O=C(O)c1cnc2c(F)cc(F)cc2c1O | > 32 | 4 | > 32 | > 32 | Non-Toxic | 2 | Non-Toxic | 4 | > 32 | > 32 | > 32 | > 32 | Non-Toxic | > 32 | 16 | 8 | 4 | 8 | 4 | Non-Toxic | minimal effective concentration (Streptococcus pyogenes [21]): 4 µM; minimal effective concentration (Enterococcus faecium [22]): 4 µM; minimal effective concentration (Enterococcus faecium [23]): 4 µM; minimal effective concentration (Pseudomonas aeruginosa [24]): > 32 µM; Activity (Macrophage cell line [25]): Non-Toxic; minimal effective concentration (Klebsiella pneumoniae [26]): > 32 µM; minimal effective concentration (Escherichia coli [27]): > 32 µM; minimal effective concentration (Staphylococcus aureus [28]): 1 µM; Activity (Staphylococcus aureus [29]): Non-Toxic; Activity (Streptococcus pyogenes [30]): Non-Toxic; minimal effective concentration (Staphylococcus aureus [31]): 0.5 µM
2 | O=C(O)c1cc(-c2ccc(F)cc2F)ncc1O | > 32 | 2 | > 32 | > 32 | Non-Toxic | 2 | Non-Toxic | 4 | > 32 | > 32 | > 32 | > 32 | Non-Toxic | > 32 | 16 | 4 | 8 | 8 | 4 | Non-Toxic | minimal effective concentration (Streptococcus pyogenes [21]): 8 µM; minimal effective concentration (Enterococcus faecium [22]): 4 µM; minimal effective concentration (Enterococcus faecium [23]): 4 µM; minimal effective concentration (Pseudomonas aeruginosa [24]): > 32 µM; Activity (Macrophage cell line [25]): Non-Toxic; minimal effective concentration (Klebsiella pneumoniae [26]): > 32 µM; minimal effective concentration (Escherichia coli [27]): > 32 µM; minimal effective concentration (Staphylococcus aureus [28]): 4 µM; Activity (Staphylococcus aureus [29]): Non-Toxic; Activity (Streptococcus pyogenes [30]): Non-Toxic; minimal effective concentration (Staphylococcus aureus [31]): 0.5 µM
